Laboratory results: US10004722B2, “Method for treating hepatic encephalopathy or a disease associated with free radical mediate stress and oxidative stress with novel functionalized 1,3-benzene diols” (KANNALIFE SCIENCES, INC., priority 2014, dated 2018)
Values joined by “and” are separate entries in the source; they are usually repeats but may differ in a detail not shown here. Equal entries are not always repeated. Where two headings read alike, the source gives them in different places.

Experiments:
hippocampal cultures [1] = assay: Neuroprotection from 30 mM ethanol plus 300 μM ammonium acetate, propidium iodide (PI) assay; assay type: cell-based; settings: Rattus norvegicus, read-out: NP from ethanol + AmAc PI EC50
Description: (§1) Cell cultures: All compounds were screened with dissociated hippocampal cultures derived from embryonic day 18 rats as the primary test system. With this preparation, primary neurons were used to test for toxicity as well as neuroprotection in a highly relevant experimental system to hepatic encephalopathy (HE). In brief, hippocampal tissue was obtained commercially through Brain Bits (Springfield, Ill.) and cultures prepared as previously described (Brewer, 1995). The hippocampal neurons were platted at low density (10,000 cell/well) in a 96-well format and maintained in serum-free medium consisting of Neurobasal Medium supplemented with B27 and GlutaMAX (Gibco). Pre-coated poly-D-lysine coated plates will be used because of the adherence and survival of hippocampal neurons and glia on this matrix support.
(§2) The central objective of all neuroprotective assays was their relevancy to oxidative stress related to HE and other or diseases associated with oxidative stress in general. These studies use phenotypic assays of neuroprotection because the molecular target(s) mediating the action of cannabidiol-like protecting substances is unknown. Both the amount of ethanol and ammonia used in the assays, as well as the time of treatment and duration of the experiment, were designed to be relevant to HE (Ong et al, 2003). […]

hippocampal cultures [2] = assay: cells; assay type: cell-based; settings: Rattus norvegicus, 300 μM ammonium acetate, propidium iodide, read-out: NP from AmAc PI EC50
Description: as §1, §2

hippocampal cultures [3] = assay: cells; assay type: cell-based; settings: Rattus norvegicus, 30 mM ethanol, propidium iodide, read-out: NP from Ethanol PI EC50
Description: Cell cultures: All compounds were screened with dissociated hippocampal cultures derived from embryonic day 18 rats as the primary test system. With this preparation, primary neurons were used to test for toxicity as well as neuroprotection in a highly relevant experimental system to hepatic encephalopathy (HE). In brief, hippocampal tissue was obtained commercially through Brain Bits (Springfield, Ill.) and cultures prepared as previously described (Brewer, 1995). The hippocampal neurons were platted at low density (10,000 cell/well) in a 96-well format and maintained in serum-free medium consisting of Neurobasal Medium supplemented with B27 and GlutaMAX (Gibco). […]
These studies use phenotypic assays of neuroprotection because the molecular target(s) mediating the action of cannabidiol-like protecting substances is unknown. […] Further, all time parameters employed in these studies were empirically determined to be within the limits of reversible toxic events after treatment with cannabidiol (Hamelink et al., 2005) and cannabidiol-like substances, yet using amounts of ethanol (30 mM) and ammonia (300 μM ammonium acetate) that were relevant to the disease. […]
Carboxyfluorescein (CFDA) was used a vital stain for all neuroprotection studies. […] The test agents were evaluated with the two assays during a 5 hour test period. […]

hippocampal cultures [4] = assay: Neuroprotection from 300 μM ammonium acetate, CFDA assay; assay type: cell-based; settings: Rattus norvegicus, read-out: NP from AmAc CFDA EC50
Description: as §1, §2

[5] = Pharmacokinetic profile after an IV dose in CD1 mice; assay type: in vivo
Experimental: (§3) The pharmacokinetic profile of compounds of the disclosure are determined in CD1 mice by administering IV and PO doses of the compounds of the disclosure to the CD1 mice. Plasma samples are drawn at 0.083, 0.25, 0.5, 1.0, 2.0, 4.0, 8.0, and 24 hours to determine the plasma concentration of the compounds of the disclosure. Brain and CSF samples were collected at 0.25 hours, 2 hours, and 8 hours post dosing. IV doses were prepared as solutions in 5% Dimethylacetamide (DMAC), 5% Solutol HS 15 and 90% Saline at 0.4 mg/mL PO doses were prepared as solutions in 5% Dimethylacetamide (DMAC), 5% Solutol HS 15 and 90% Saline at 1 mg/mL. Experimental results for exemplary compounds of the disclosure are described in tables 6-9 and FIGS. 1 and 2.

hippocampal cultures [6] = assay: Neuroprotection from 30 mM ethanol, CFDA assay; assay type: cell-based; settings: Rattus norvegicus, read-out: NP from Ethanol CFDA EC50
Experimental: Cell cultures: All compounds were screened with dissociated hippocampal cultures derived from embryonic day 18 rats as the primary test system. […] The hippocampal neurons were platted at low density (10,000 cell/well) in a 96-well format and maintained in serum-free medium consisting of Neurobasal Medium supplemented with B27 and GlutaMAX (Gibco).
The effective working concentration of ethanol that was empirically determined to produce toxicity in the hippocampal cultures was 30 mM.
Carboxyfluorescein (CFDA) was used a vital stain for all neuroprotection studies. With the use of the CytoFluor fluorimeter, the CFDA assay was employed to assess the viability of neurons. […] Cultures were treated within the period of culture vulnerability for toxins relevant to HE: between days 11 and 22 after cell plating. The test agents were evaluated with the two assays during a 5 hour test period. For all assays, a 96-well format was used. […] Cultures were given a complete change of medium prior to the initiation of the treatment period.
A compound of the disclosure was added to the hippocampal cultures for a five hour period. Compounds were tested from 10 nM to 100 μM. At the conclusion of the test period, the cultures were tested for the amount of neuronal viability by the CFDA method. […]

in vivo = assay: in vivo; parameters: species or system CD1 mice
Experimental: as §3

hippocampal cultures [7] = assay: Neuroprotection from 30 mM ethanol plus 300 μM ammonium acetate, CFDA assay; assay type: cell-based; settings: Rattus norvegicus, read-out: NP from ethanol + AmAc CFDA EC50
Description: as §1, §2

[8] = CD1, mouse, in vivo, iv, 2 mg/kg
[9] = CD1, mouse, in vivo, po, 10 mg/kg
[10] = PO 10 mg/kg, CD1 mice, 0.25 hr, listed as KLS-13019, 10 mg/kg
[11] = PO 10 mg/kg, CD1 mice, 2 hr, listed as KLS-13019, 10 mg/kg

`C=C(C)[C@@H]1CCC(C)=C[C@H]1c1c(O)cc(CC2CN(C(C)=O)C2)cc1O` [Example 2, 1-(3-(3,5-dihydroxy-4-((1R,6R)-3-methyl-6-(prop-1-en-2-yl)cyclohex-2-enyl)benzyl)azetidin-1-yl)ethanone] gave an EC50 (hippocampal cultures [1]) of 203 nM, an EC50 (hippocampal cultures [2]) of 38 nM and an EC50 (hippocampal cultures [3]) of 46 nM. For the same compound, the EC50 (hippocampal cultures [4]) was 61 nM, the AUC(0-inf) [5, 8] was 440 ng·h/mL and the AUC(0-t) [5, 8] was 431 ng·h/mL. It also gave an MRT inf [5, 8] of 0.702 h, a Vd [5, 8] of 3.19 L/kg and a clearance [5, 8] of 75.8 mL/min/kg. It also gave a half-life ([5]; mouse, plasma, IV 2 mg/kg, CD1 mice, read-out: Terminal t1/2 (converted)) of 3.24 h, an EC50 (hippocampal cultures [6]) of 175 nM and a Tmax (in vivo; [9]) of 0.25 h. The half-life (in vivo; [9]) was 5.31 h, the concentration at 0.25 h (in vivo; CD1, mouse, in vivo, po, 10 mg/kg, PO 10 mg/kg, CD1 mice, 0.25 hr, read-out: Brain concentration, mean) was 469 ng/mL and the Kp at 0.25 h (in vivo; CD1, mouse, in vivo, po, 10 mg/kg, PO 10 mg/kg, CD1 mice, 0.25 hr, read-out: Brain/Plasma (%), individual) was 0.801. The Kp at 0.25 h (in vivo; CD1, mouse, in vivo, po, 10 mg/kg, PO 10 mg/kg, CD1 mice, 0.25 hr, read-out: Brain/Plasma (%), mean) was 0.821, the concentration at 0.25 h (in vivo; CD1, mouse, in vivo, po, 10 mg/kg, PO 10 mg/kg, CD1 mice, 0.25 hr, read-out: CSF concentration, mean) was 8.95 ng/mL and the Kp at 0.25 h (in vivo; CD1, mouse, in vivo, po, 10 mg/kg, PO 10 mg/kg, CD1 mice, 0.25 hr, read-out: CSF/Plasma (%), individual) was 0.0179. The Kp at 0.25 h (in vivo; CD1, mouse, in vivo, po, 10 mg/kg, PO 10 mg/kg, CD1 mice, 0.25 hr, read-out: CSF/Plasma (%), mean) was 0.0155, the concentration at 2 h (in vivo; CD1, mouse, in vivo, po, 10 mg/kg, PO 10 mg/kg, CD1 mice, 2 hr, read-out: Brain concentration, mean) was 126 ng/mL and the Kp at 2 h (in vivo; CD1, mouse, in vivo, po, 10 mg/kg, PO 10 mg/kg, CD1 mice, 2 hr, read-out: Brain/Plasma (%), individual) was 1.15. For the same compound, the Kp at 2 h (in vivo; CD1, mouse, in vivo, po, 10 mg/kg, PO 10 mg/kg, CD1 mice, 2 hr, read-out: Brain/Plasma (%), mean) was 1.17, the concentration at 2 h (in vivo; CD1, mouse, in vivo, po, 10 mg/kg, PO 10 mg/kg, CD1 mice, 2 hr, read-out: CSF concentration, mean) was 2.65 ng/mL and the Kp at 2 h (in vivo; CD1, mouse, in vivo, po, 10 mg/kg, PO 10 mg/kg, CD1 mice, 2 hr, read-out: CSF/Plasma (%), individual) was 0.0255. For the same compound, the Kp at 2 h (in vivo; CD1, mouse, in vivo, po, 10 mg/kg, PO 10 mg/kg, CD1 mice, 2 hr, read-out: CSF/Plasma (%), mean) was 0.0291, the F (in vivo; CD1, mouse, po, 10 mg/kg) was 67.1% and the Tmax (in vivo; CD1, mouse, po, 10 mg/kg) was 0.25 h. For the same compound, the half-life (in vivo; CD1, mouse, po, 10 mg/kg) was 5.36 h, the “Brain/CSF, mean” value (in vivo; PO 10 mg/kg, CD1 mice, 0.25 hr) was 53.5 and the “Brain/CSF, individual” value (in vivo; [10]) was 44.7 and 61.3 and 54.6. For the same compound, the “Brain/Plasma (%), individual” value (in vivo; [10]) was 87.4% and 78.7%, the “CSF/Plasma (%), individual” value (in vivo; [10]) was 1.42% and 1.44% and the “Brain/CSF, mean” value (in vivo; PO 10 mg/kg, CD1 mice, 2 hr) was 43.7. The “Brain/CSF, individual” value (in vivo; [11]) was 45.0 and 60.3 and 25.9, the “Brain/Plasma (%), individual” value (in vivo; [11]) was 136% and 101% and the “CSF concentration, individual” value (in vivo; [11]) was 3.60 ng/mL and 3.00 ng/mL and 1.35 ng/mL. For the same compound, the “CSF/Plasma (%), individual” value (in vivo; [11]) was 2.26% and 3.91%, the “Brain concentration, individual” value (in vivo; PO 10 mg/kg, CD1 mice, 8 hr) was “BQL” and the “Brain concentration, mean” value (in vivo; PO 10 mg/kg, CD1 mice, 8 hr) was “BQL”. For the same compound, the “Brain/Plasma (%), mean” value (in vivo; PO 10 mg/kg, CD1 mice, 8 hr) was “BQL”, the “CSF concentration, individual” value (in vivo; PO 10 mg/kg, CD1 mice, 8 hr) was “BQL” and the “CSF concentration, mean” value (in vivo; PO 10 mg/kg, CD1 mice, 8 hr) was “BQL”. For the same compound, the “CSF/Plasma (%), mean” value (in vivo; PO 10 mg/kg, CD1 mice, 8 hr) was “BQL” and the EC50 (hippocampal cultures [7]) was 127 nM.

Compound `C=C(C)[C@@H]1CCC(C)=C[C@H]1c1c(O)cc(CC2CN(C(=O)OCC)C2)cc1O` [Example 3, ethyl 3-(3,5-dihydroxy-4-((1R,6R)-3-methyl-6-(prop-1-en-2-yl)cyclohex-2-enyl)benzyl)azetidine-1-carboxylate] has an EC50 (hippocampal cultures [1]) of 61 nM, an EC50 (hippocampal cultures [2]) of 50 nM and an EC50 (hippocampal cultures [3]) of 20 nM. The EC50 (hippocampal cultures [4]) was 105 nM, the EC50 (hippocampal cultures [6]) was 30 nM and the EC50 (hippocampal cultures [7]) was 87 nM.
